The values that follow come from patent US20190308987A1, “DUAL MODULATORS OF BOTH MU AND KAPPA OPIOID RECEPTORS” (priority 2016, published 2019).

“Also recorded” adds a separate entry of the source.

Assay [1] concerns the target T1, delta opioid receptor (DOR) (Homo sapiens, UniProt P41143).
T1 construct: expressed in transfected cells; host or cells: CHO cells (membranes)
The assay is described as follows: Competitive radioligand binding, DOR ([3H]NTI). Particulars: read-out: Ki (nM) ± SEM. The method, then: The details of the Radioligand Binding and Functional Studies that were used were described previously.^19 Chinese hamster ovarian (CHO) cell lines were used as monoclonal opioid receptor expressing cells. The μ, δ, and κ opioid receptors were labeled with [^3H]naloxone, ^3H-naltrindole ([^3H]NTI) and ^3H-nor-Binaltorphimine ([^3H]norBNI). The opioid receptor expressing cell membranes were incubated with the radioligands at different concentrations of the drug under investigation at 30° C. for 1 h. With the absence and presence of 10 μM naltrexone, specific binding was got as the difference in binding obtained. The specific binding of the drugs to the radioligand was calculated from data using linear regression analysis of Hill plots.
All samples were assayed in triplicate and repeated at least twice for a total of 3 independent determinations. Results were reported as mean values±SEM. Concentration-effect curves were fit by nonlinear regression to a one-site binding model, using GraphPad Prism software, to determine EC50 and Emax values. IC50 values were obtained from Hill plots and analyzed by linear regression using Microsoft Excel software. Binding Ki values were determined from IC50 values using the Cheng-Prusoff equation: Ki=IC50/l+([L]/KD), where [L] is the concentration of […] and KD is the KD of the radioligand.

The test system of assay [2] is mouse distal colon circular muscle. The assay is described as follows: Colon circular muscle isometric tension recordings, distal colon. The method, then: (§1) Mice were euthanized by cervical dislocation. The colon was dissected, flushed of its contents, and trimmed of mesentery. […] The tissues, 0.5 cm in length, were suspended vertically along the axis of the circular muscle with a metal triangle tied to a hook under 1 g of passive tension in 15 mL siliconized organ baths.
(§2) Data are presented as the mean±S.E.M, values of P≤0.05 were considered significant.

The subject of assay [3] is mouse proximal colon circular muscle. The assay is described as follows: Colon circular muscle isometric tension recordings, proximal colon. How it is done:
as §1, §2

In the next assay the test system is colonic motility. Description: Colonic bead expulsion assay. It is filed as in vivo, mice. The method, then: Mice were habituated and fasted as described above for the gastrointestinal transit analysis. […] At 20 min post-injection, animals were anesthetized with isoflurane (1-2 min) to insert a single 2-mm glass bead into the distal colon at a distance of 3 cm from the anus. Bead insertion was accomplished using a glass rod with a fire-polished end to avoid tissue damage and marked at 3 cm.^25 After bead insertion, mice were placed in individual cages and the time to bead expulsion was monitored. Animals were monitored for a maximum of 2 h unless bead expulsion occurred sooner.

Assay [4] concerns guinea pig ileum Longitudinal Muscle Myenteric Plexus (LMMP). The assay is described as follows: Electrical field stimulated contractions in LMMP strips. How it is done:
Male albino guinea pigs (350-450 g) were euthanized by asphyxiation with CO2. A segment of ileum was removed and placed in a dissection bath filled with pre-oxygenated Krebs' solution (118 mM NaCl, 4.6 mM KCl, 1.3 mM NaH2PO4, 1.2 mM MgSO4, 25 mM NaHCO3, 11 mM glucose, and 2.5 mM CaCl2). Longitudinal Muscle Myenteric Plexus (LMMP) strips were prepared as previously described.^26 Electrical field stimulation (EFS) (50 V, 7.5 Hz, unless stated otherwise) was applied through concentric electrodes over longitudinal muscle or L-type stimulating electrodes over circular muscle strips to produce neurogenic contractions/relaxations. Drugs were added in single or cumulative doses depending on the assay to determine their inhibitory effects on the neurogenic responses.

Assay [5] relates to visceral pain (abdominal stretches). Description: Acetic acid induced writhing assay. The class given is in vivo, Swiss Webster mice. The method, then:
To determine whether BNAP provides KOR mediated analgesia acetic acid-induced abdominal stretches were counted in mice. Swiss Webster mice were allowed to acclimate in individual testing cages for at least 10 min. Following the acclimation period the vehicle or BNAP was administered via s.c injection at the specified dose. After waiting for 10 min the mice were injected intraperitoneally with 10 mL/kg 0.6% (wt/vol) acetic acid and returned to their observation chambers. After the first 3 min, the number of stretches and abdominal contractions were counted for 15 min. All values shown for abdominal stretching experiments represent separate groups of mice (n=4-8) as each animal was tested only once and euthanized immediately after testing.
In order to confirm the involvement of the KOR in the analgesia produced by BNAP in the Acetic Acid Induced Writhing test, this test was performed in the presence of the KOR-specific antagonist nor-Binaltorphimine 2HCl (nor-BNI). According to previous literature, nor-BNI antagonist activity reaches optimal selectivity and efficacy in the writhing test at 24 hours post administration.^27, 28 These animals were injected sub-cutaneously with either 10 mg/kg nor-BNI or saline 24 hours prior to initiation of the writhing test. The writhing test was then performed as described above (n=5-6).

T1 sequence (P41143 whole entry): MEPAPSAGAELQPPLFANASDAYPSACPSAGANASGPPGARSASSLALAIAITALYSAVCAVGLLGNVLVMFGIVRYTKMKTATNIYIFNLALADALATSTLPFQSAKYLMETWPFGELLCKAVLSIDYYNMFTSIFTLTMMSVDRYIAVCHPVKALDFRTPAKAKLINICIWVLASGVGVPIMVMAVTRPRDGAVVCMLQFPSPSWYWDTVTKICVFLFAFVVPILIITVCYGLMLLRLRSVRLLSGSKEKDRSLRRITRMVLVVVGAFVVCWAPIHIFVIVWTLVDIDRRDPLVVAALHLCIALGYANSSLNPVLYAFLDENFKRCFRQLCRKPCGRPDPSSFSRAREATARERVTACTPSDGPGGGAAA

In general, Ki refers to the equilibrium dissociation constant of an inhibitor or competing ligand from its target. For the compound `O=C(N[C@@H]1CC[C@@]2(O)[C@H]3Cc4ccc(O)c5c4[C@@]2(CCN3CC2CC2)C1O5)c1cc[n+](Cc2ccccc2)cc1` (stereo partly shown) [BNAP], in assay [1], the Ki was 722 ± 65 nM. In addition, the “inhibition of morphine-induced contractions” value in assay [2] (1 nM antagonist, distal colon) is “neither NAP nor BNAP showed significant inhibition of morphine-induced contractions”; in assay [3] (1 nM antagonist, proximal colon), “neither NAP nor BNAP showed significant inhibition of morphine-induced contractions”. Further, the “antagonism of morphine effects” value in assay [2] (10 nM antagonist, distal colon) is “neither NAP nor BNAP showed significant antagonism of morphine effects”. Besides, the “morphine pD2 in presence of antagonist” value in assay [2] (100 nM antagonist, distal colon (naive 6.0)) came to 5.2; in assay [3] (10 nM antagonist, proximal colon (naive 6.8)) it was 5.9. The “contractions induced by compound alone” value in assay [2] (up to 30 μM, distal colon preparation) is recorded as “Neither BNAP nor NAP alone at concentrations up to 30 μM induced contractions”; in assay [3] (up to 30 μM, proximal colon preparation), “Neither BNAP nor NAP alone at concentrations up to 30 μM induced contractions”. Besides, the “further reduction of morphine pD2” value in assay [3] (100 nM versus 10 nM antagonist, proximal colon) is on record as “no further reduction of the morphine pD2”. Further, the bead expulsion time in the assay on colonic motility (BNAP alone 10 mg/kg, naive mice 17 min) came to 43 min. The “antagonism of morphine's effect on bead expulsion” value in the assay on colonic motility (BNAP concurrently or 5 or 15 min before morphine) was “no significant antagonism of morphine's effects was observed”. For the same compound, the IC50 in assay [4] (Cavia porcellus, guinea pig ileum LMMP, read-out: pIC50 for inhibition of EFS contractions (converted)) is 0.0138 µM. The “effect of nor-BNI on agonist concentration-response curve” value in assay [4] (nor-BNI pretreatment 15 min, dose dependent) is given as “dose dependently shifted the BNAP concentration-response curve to the right”. For the same compound, the “analgesia in presence of nor-BNI” value in assay [5] (10 mg/kg nor-BNI s.c. 24 h before, morphine pelleted animals) is “effectively blocked the analgesia produced by BNAP”. The “active concentration in hypernociceptive model” value in assay [5] (mice chronically treated with 75 mg morphine pellet) was “active at three fold lower concentration; also recorded: active at concentrations three-fold lower”. Further, in assay [5] (s.c., naive mice), the number of writhes entry is “dose dependently reduced the number of writhes”.
